The source made the active and inactive calls. The calls are words filed in the database; no cut-off is given here.
Test system: not listed separately
Assay: Antiproliferative activity against human SKHep cells incubated for 72 hrs by MTT assay
Type: functional, cell-based
Conditions: not given

| Structure (SMILES) | IC50 [µM] |
| --- | --- |
| COc1ccc2c(c1)C(=O)c1c-2c(N2CCN(C(=O)CN(C)C)CC2)nc2ccccc12 | 19.2 |
| COc1ccc2c(c1)/C(=N\OCC(O)CN(C)C)c1c-2c(N2CCN(CC(O)CN(C)C)CC2)nc2ccccc12 (stereo unspecified) | 2.46 |
| COc1ccc2c(c1)C(=O)c1c-2c(N2CCNCC2)nc2ccccc12 | 25.3 |
| COc1ccc2c(c1)C(=O)c1c-2c(N2CCN(C(=O)CNCCN(C)C)CC2)nc2ccccc12 | 16 |
| CNCC(O)CN1CCN(c2nc3ccccc3c3c2-c2ccc(OC)cc2C3=O)CC1 (stereo unspecified) | 3.44 |

Test system: Nucleic Acid
Assay: Induction of DNA intercalation of negative supercoiled Escherichia coli pBR322 DNA at 10 uM incubated for 12 hrs by ethidium bromide staining based DNA mobility assay
Type: nucleic-acid assay
Conditions: not given

| Activity | Structure (SMILES) |
| --- | --- |
| Active | COc1ccc2c(c1)/C(=N\OCCN1CCCC1)c1c-2c(O)nc2ccccc12 |

Test system: NCI-H1299
Assay: Antiproliferative activity against human H1299 cells incubated for 72 hrs by MTT assay
Type: functional, cell-based
Conditions: NCI-H1299, 72 h

| Structure (SMILES) | IC50 [µM] |
| --- | --- |
| COc1ccc2c(c1)C(=O)c1c-2c(N2CCN(C(=O)CN(C)C)CC2)nc2ccccc12 | 6.28 |
| COc1ccc2c(c1)C(=O)c1c-2c(N2CCN(C(=O)CNCCN(C)C)CC2)nc2ccccc12 | 6.48 |
| CNCC(O)CN1CCN(c2nc3ccccc3c3c2-c2ccc(OC)cc2C3=O)CC1 (stereo unspecified) | 6.89 |

The remaining lines, values ahead:

| IC50 [µM] | Structure (SMILES) |
| --- | --- |
| 17.1 | COc1ccc2c(c1)C(=O)c1c-2c(N2CCNCC2)nc2ccccc12 |
| 0.68 | COc1ccc2c(c1)/C(=N\OCC(O)CN(C)C)c1c-2c(N2CCN(CC(O)CN(C)C)CC2)nc2ccccc12 (stereo unspecified) |

Test system: Detroit 551
Assay: Antiproliferative activity against human Detroit 551 cells incubated for 72 hrs by MTT assay
Type: functional, cell-based
Conditions: Detroit 551, 72 h

| Structure (SMILES) | IC50 [µM] |
| --- | --- |
| COc1ccc2c(c1)C(=O)c1c-2c(N2CCN(C(=O)CN(C)C)CC2)nc2ccccc12 | 31.5 |
| COc1ccc2c(c1)/C(=N\OCC(O)CN(C)C)c1c-2c(N2CCN(CC(O)CN(C)C)CC2)nc2ccccc12 (stereo unspecified) | 2.05 |
| COc1ccc2c(c1)C(=O)c1c-2c(N2CCNCC2)nc2ccccc12 | 5.71 |
| COc1ccc2c(c1)C(=O)c1c-2c(N2CCN(C(=O)CNCCN(C)C)CC2)nc2ccccc12 | 4.59 |
| CNCC(O)CN1CCN(c2nc3ccccc3c3c2-c2ccc(OC)cc2C3=O)CC1 (stereo unspecified) | 9.4 |

Test system: MDA-MB-231
Assay: Antiproliferative activity against human MDA-MB-231 cells incubated for 72 hrs by MTT assay
Type: functional, cell-based
Conditions: MDA-MB-231, 72 h

| Structure (SMILES) | IC50 [µM] |
| --- | --- |
| COc1ccc2c(c1)C(=O)c1c-2c(N2CCN(C(=O)CN(C)C)CC2)nc2ccccc12 | 6.15 |
| COc1ccc2c(c1)C(=O)c1c-2c(N2CCN(C(=O)CNCCN(C)C)CC2)nc2ccccc12 | 6.15 |
| CNCC(O)CN1CCN(c2nc3ccccc3c3c2-c2ccc(OC)cc2C3=O)CC1 (stereo unspecified) | 6.05 |

Further lines, results first:

| IC50 [µM] | Structure (SMILES) |
| --- | --- |
| 23.8 | COc1ccc2c(c1)C(=O)c1c-2c(N2CCNCC2)nc2ccccc12 |
| 0.7 | COc1ccc2c(c1)/C(=N\OCC(O)CN(C)C)c1c-2c(N2CCN(CC(O)CN(C)C)CC2)nc2ccccc12 (stereo unspecified) |

Test system: not listed separately
Assay: Antiproliferative activity against human 786-O cells incubated for 72 hrs by MTT assay
Type: functional, cell-based
Conditions: 786-0, 72 h

| Structure (SMILES) | IC50 [µM] |
| --- | --- |
| COc1ccc2c(c1)C(=O)c1c-2c(N2CCN(C(=O)CN(C)C)CC2)nc2ccccc12 | 14.1 |
| COc1ccc2c(c1)/C(=N\OCC(O)CN(C)C)c1c-2c(N2CCN(CC(O)CN(C)C)CC2)nc2ccccc12 (stereo unspecified) | 13.9 |
| COc1ccc2c(c1)C(=O)c1c-2c(N2CCNCC2)nc2ccccc12 | 12.5 |
| COc1ccc2c(c1)C(=O)c1c-2c(N2CCN(C(=O)CNCCN(C)C)CC2)nc2ccccc12 | 9.37 |
| CNCC(O)CN1CCN(c2nc3ccccc3c3c2-c2ccc(OC)cc2C3=O)CC1 (stereo unspecified) | 6.4 |

Test system: AGS
Assay: Antiproliferative activity against human AGS cells incubated for 72 hrs by MTT assay
Type: functional, cell-based
Conditions: not given

| Structure (SMILES) | IC50 [µM] |
| --- | --- |
| COc1ccc2c(c1)C(=O)c1c-2c(N2CCN(C(=O)CN(C)C)CC2)nc2ccccc12 | 8.7 |
| COc1ccc2c(c1)C(=O)c1c-2c(N2CCN(C(=O)CNCCN(C)C)CC2)nc2ccccc12 | 14.1 |
| CNCC(O)CN1CCN(c2nc3ccccc3c3c2-c2ccc(OC)cc2C3=O)CC1 (stereo unspecified) | 9.58 |

Continued, values first:

| IC50 [µM] | Structure (SMILES) |
| --- | --- |
| 10.1 | COc1ccc2c(c1)C(=O)c1c-2c(N2CCNCC2)nc2ccccc12 |
| 18.6 | COc1ccc2c(c1)/C(=N\OCC(O)CN(C)C)c1c-2c(N2CCN(CC(O)CN(C)C)CC2)nc2ccccc12 (stereo unspecified) |

Test system: HeLa
Assay: Antiproliferative activity against human HeLa cells incubated for 72 hrs by MTT assay
Type: functional, cell-based
Conditions: not given

| Structure (SMILES) | IC50 [µM] |
| --- | --- |
| COc1ccc2c(c1)C(=O)c1c-2c(N2CCN(C(=O)CN(C)C)CC2)nc2ccccc12 | 11.8 |
| COc1ccc2c(c1)C(=O)c1c-2c(N2CCN(C(=O)CNCCN(C)C)CC2)nc2ccccc12 | 8.17 |
| CNCC(O)CN1CCN(c2nc3ccccc3c3c2-c2ccc(OC)cc2C3=O)CC1 (stereo unspecified) | 4.64 |

Further lines, results first:

| IC50 [µM] | Structure (SMILES) |
| --- | --- |
| 15.2 | COc1ccc2c(c1)C(=O)c1c-2c(N2CCNCC2)nc2ccccc12 |
| 0.98 | COc1ccc2c(c1)/C(=N\OCC(O)CN(C)C)c1c-2c(N2CCN(CC(O)CN(C)C)CC2)nc2ccccc12 (stereo unspecified) |

Test system: SAS
Assay: Antiproliferative activity against human SAS cells incubated for 72 hrs by MTT assay
Type: functional, cell-based
Conditions: not given

| Structure (SMILES) | IC50 [µM] |
| --- | --- |
| COc1ccc2c(c1)C(=O)c1c-2c(N2CCN(C(=O)CN(C)C)CC2)nc2ccccc12 | > 30 |
| COc1ccc2c(c1)/C(=N\OCC(O)CN(C)C)c1c-2c(N2CCN(CC(O)CN(C)C)CC2)nc2ccccc12 (stereo unspecified) | 9 |
| COc1ccc2c(c1)C(=O)c1c-2c(N2CCNCC2)nc2ccccc12 | > 30 |
| COc1ccc2c(c1)C(=O)c1c-2c(N2CCN(C(=O)CNCCN(C)C)CC2)nc2ccccc12 | 19.5 |
| CNCC(O)CN1CCN(c2nc3ccccc3c3c2-c2ccc(OC)cc2C3=O)CC1 (stereo unspecified) | 7.4 |

From ChEMBL document CHEMBL3585245, “Synthesis and antiproliferative evaluation of 9-methoxy-6-(piperazin-1-yl)-11H-indeno[1,2-c]quinoline-11-one derivatives. Part 4” (Medchemcomm, 2014)
